Measurements reported in ChEMBL document CHEMBL1201862, “PubChem BioAssay data set” (2004).
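Grown in 96-well plates, cells were treated for 48 hours with each compound at five concentrations. Insufficient inhibition: endpoint recorded as highest concentration tested. The concentration for 50% growth inhibition is given as GI50.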 Calls of active or inactive are those of the source. Rule as the data show it: active = GI50 up to about 1.1 µM and inactive = higher.

Legend:
Assay in all cases: NCI tumour cell line growth inhibition, 48 h
786-0 = tested on: 786-0
A498 = tested on: A498
A549 = tested on: A549
ACHN = tested on: ACHN
BT-549 = tested on: BT-549
CAKI-1 = tested on: CAKI-1
CCRF-CEM = tested on: CCRF-CEM
COLO 205 = tested on: COLO 205
EKVX = tested on: EKVX
HCC 2998 = tested on: HCC 2998
HCT-116 = tested on: HCT-116
HCT-15 = tested on: HCT-15
HL-60 = tested on: HL-60
HOP-62 = tested on: HOP-62
HOP-92 = tested on: HOP-92
HT-29 = tested on: HT-29
Hs-578T = tested on: Hs-578T
IGROV-1 = tested on: IGROV-1
K562 = tested on: K562
KM12 = tested on: KM12
LOX IMVI = tested on: LOX IMVI
M14 = tested on: M14
MCF7 = tested on: MCF7
MDA-MB-231 = tested on: MDA-MB-231
MDA-MB-435 = tested on: MDA-MB-435
MDA-N = tested on: MDA-N
MOLT-4 = tested on: MOLT-4
Malme-3M = tested on: Malme-3M
NCI-H226 = tested on: NCI-H226
NCI-H460 = tested on: NCI-H460
NCI-H522 = tested on: NCI-H522
NCI/ADR-RES = tested on: NCI/ADR-RES
OVCAR-4 = tested on: OVCAR-4
OVCAR-5 = tested on: OVCAR-5
OVCAR-8 = tested on: OVCAR-8
PC-3 = tested on: PC-3
RPMI-8226 = tested on: RPMI-8226
RXF 393 = tested on: RXF 393
SF-268 = tested on: SF-268
SF-295 = tested on: SF-295
SF-539 = tested on: SF-539
SK-MEL-28 = tested on: SK-MEL-28
SK-MEL-2 = tested on: SK-MEL-2
SK-MEL-5 = tested on: SK-MEL-5
SK-OV-3 = tested on: SK-OV-3
SN12C = tested on: SN12C
SNB-19 = tested on: SNB-19
SNB-75 = tested on: SNB-75
SW-620 = tested on: SW-620
TK-10 = tested on: TK-10
U-251 = tested on: U-251
UACC-257 = tested on: UACC-257
UACC-62 = tested on: UACC-62
NCI-H23 = tested on: NCI-H23
SR = tested on: SR
UO-31 = tested on: UO-31

Q: How did the GI50 (786-0) turn out when COc1ccc(-c2c(C#N)c(-c3ccccc3)n(NS(=O)(=O)c3ccccc3)c(=O)c2C#N)cc1 was run?
A: > 100 µM (inactive)

Q: What about the GI50 (A498) of the same compound?
A: > 100 µM (inactive)

Q: What about the GI50 (A549) of the same compound?
A: > 100 µM (inactive)

Q: What about the GI50 (ACHN) of the same compound?
A: > 100 µM (inactive)

Q: And the GI50 (BT-549)?
A: > 100 µM (inactive)

Q: What about the GI50 (CAKI-1) of the same compound?
A: > 100 µM (inactive)

Q: And the GI50 (CCRF-CEM)?
A: 36.9 µM (inactive)

Q: What about the GI50 (COLO 205) of the same compound?
A: > 100 µM (inactive)

Q: And the GI50 (EKVX)?
A: > 100 µM (inactive)

Q: What about the GI50 (HCC 2998) of the same compound?
A: 81.5 µM (inactive)

Q: And the GI50 (HCT-116)?
A: > 100 µM (inactive)

Q: And the GI50 (HCT-15)?
A: > 100 µM

Q: And the GI50 (HL-60)?
A: 60.3 µM (inactive)

Q: And the GI50 (HOP-62)?
A: 95.1 µM (inactive)

Q: And the GI50 (HOP-92)?
A: 26.2 µM (inactive)

Q: And the GI50 (HT-29)?
A: > 100 µM (inactive)

Q: What about the GI50 (Hs-578T) of the same compound?
A: 41.6 µM (inactive)

Q: What about the GI50 (IGROV-1) of the same compound?
A: 36.3 µM (inactive)

Q: What about the GI50 (K562) of the same compound?
A: 65.9 µM (inactive)

Q: And the GI50 (KM12)?
A: > 100 µM (inactive)

Q: And the GI50 (LOX IMVI)?
A: 60.4 µM (inactive)

Q: What about the GI50 (M14) of the same compound?
A: > 100 µM (inactive)

Q: What about the GI50 (MCF7) of the same compound?
A: 50.5 µM (inactive)

Q: What about the GI50 (MDA-MB-231) of the same compound?
A: > 100 µM (inactive)

Q: What about the GI50 (MDA-MB-435) of the same compound?
A: > 100 µM (inactive)

Q: What about the GI50 (MDA-N) of the same compound?
A: > 100 µM (inactive)

Q: What about the GI50 (MOLT-4) of the same compound?
A: 27.6 µM (inactive)

Q: What about the GI50 (Malme-3M) of the same compound?
A: 41.6 µM (inactive)

Q: And the GI50 (NCI-H226)?
A: > 100 µM (inactive)

Q: What about the GI50 (NCI-H460) of the same compound?
A: > 100 µM (inactive)

Q: And the GI50 (NCI-H522)?
A: 20.5 µM (inactive)

Q: And the GI50 (NCI/ADR-RES)?
A: 53.3 µM (inactive)

Q: And the GI50 (OVCAR-4)?
A: > 100 µM (inactive)

Q: And the GI50 (OVCAR-5)?
A: > 100 µM (inactive)

Q: What about the GI50 (OVCAR-8) of the same compound?
A: 97.1 µM (inactive)

Q: What about the GI50 (PC-3) of the same compound?
A: 59 µM (inactive)

Q: What about the GI50 (RPMI-8226) of the same compound?
A: 29.2 µM (inactive)

Q: What about the GI50 (RXF 393) of the same compound?
A: 76.4 µM (inactive)

Q: What about the GI50 (SF-268) of the same compound?
A: 97.3 µM (inactive)

Q: And the GI50 (SF-295)?
A: > 100 µM (inactive)

Q: And the GI50 (SF-539)?
A: 90.6 µM (inactive)

Q: And the GI50 (SK-MEL-28)?
A: > 100 µM (inactive)

Q: What about the GI50 (SK-MEL-2) of the same compound?
A: 94.6 µM (inactive)

Q: And the GI50 (SK-MEL-5)?
A: 55.1 µM (inactive)

Q: And the GI50 (SK-OV-3)?
A: > 100 µM (inactive)

Q: What about the GI50 (SN12C) of the same compound?
A: > 100 µM (inactive)

Q: What about the GI50 (SNB-19) of the same compound?
A: 92.7 µM (inactive)

Q: And the GI50 (SNB-75)?
A: 50.8 µM (inactive)

Q: What about the GI50 (SW-620) of the same compound?
A: > 100 µM (inactive)

Q: And the GI50 (TK-10)?
A: > 100 µM (inactive)

Q: And the GI50 (U-251)?
A: 71.8 µM (inactive)

Q: And the GI50 (UACC-257)?
A: > 100 µM (inactive)

Q: What about the GI50 (UACC-62) of the same compound?
A: 79.8 µM (inactive)

Q: CC1CCCC(CC(=O)O)(CC(=O)O)C1 (centres undefined) was tested. Which GI50 (786-0) did it give?
A: > 100 µM (inactive)

Q: What about the GI50 (A498) of the same compound?
A: > 100 µM (inactive)

Q: What about the GI50 (A549) of the same compound?
A: > 100 µM (inactive)

Q: And the GI50 (ACHN)?
A: > 100 µM (inactive)

Q: What about the GI50 (BT-549) of the same compound?
A: > 100 µM (inactive)

Q: And the GI50 (CAKI-1)?
A: > 100 µM (inactive)

Q: What about the GI50 (CCRF-CEM) of the same compound?
A: > 100 µM (inactive)

Q: And the GI50 (COLO 205)?
A: > 100 µM (inactive)

Q: What about the GI50 (EKVX) of the same compound?
A: > 100 µM (inactive)

Q: And the GI50 (HCC 2998)?
A: > 100 µM (inactive)

Q: And the GI50 (HCT-116)?
A: > 100 µM (inactive)

Q: What about the GI50 (HCT-15) of the same compound?
A: > 100 µM

Q: And the GI50 (HL-60)?
A: > 100 µM (inactive)

Q: And the GI50 (HOP-92)?
A: > 100 µM (inactive)

Q: And the GI50 (HT-29)?
A: > 100 µM (inactive)

Q: What about the GI50 (Hs-578T) of the same compound?
A: > 100 µM (inactive)

Q: And the GI50 (IGROV-1)?
A: > 100 µM (inactive)

Q: What about the GI50 (K562) of the same compound?
A: > 100 µM (inactive)

Q: What about the GI50 (KM12) of the same compound?
A: > 100 µM (inactive)

Q: And the GI50 (LOX IMVI)?
A: > 100 µM (inactive)

Q: And the GI50 (M14)?
A: > 100 µM (inactive)

Q: And the GI50 (MCF7)?
A: > 100 µM (inactive)

Q: And the GI50 (MDA-MB-231)?
A: > 100 µM (inactive)

Q: And the GI50 (MDA-MB-435)?
A: > 100 µM (inactive)

Q: And the GI50 (MDA-N)?
A: > 100 µM (inactive)

Q: And the GI50 (MOLT-4)?
A: 48.1 µM (inactive)

Q: And the GI50 (Malme-3M)?
A: > 100 µM (inactive)

Q: What about the GI50 (NCI-H226) of the same compound?
A: > 100 µM (inactive)

Q: And the GI50 (NCI-H23)?
A: > 100 µM (inactive)

Q: What about the GI50 (NCI-H460) of the same compound?
A: > 100 µM (inactive)

Q: What about the GI50 (NCI-H522) of the same compound?
A: > 100 µM (inactive)

Q: What about the GI50 (NCI/ADR-RES) of the same compound?
A: > 100 µM (inactive)

Q: What about the GI50 (OVCAR-4) of the same compound?
A: > 100 µM (inactive)

Q: What about the GI50 (OVCAR-5) of the same compound?
A: > 100 µM (inactive)

Q: What about the GI50 (OVCAR-8) of the same compound?
A: > 100 µM (inactive)

Q: What about the GI50 (PC-3) of the same compound?
A: > 100 µM (inactive)

Q: What about the GI50 (RPMI-8226) of the same compound?
A: > 100 µM (inactive)

Q: What about the GI50 (SF-268) of the same compound?
A: > 100 µM (inactive)

Q: And the GI50 (SF-539)?
A: > 100 µM (inactive)

Q: And the GI50 (SK-MEL-28)?
A: 7.55 µM (inactive)

Q: What about the GI50 (SK-MEL-2) of the same compound?
A: > 100 µM (inactive)

Q: What about the GI50 (SK-MEL-5) of the same compound?
A: > 100 µM (inactive)

Q: And the GI50 (SN12C)?
A: > 100 µM (inactive)

Q: And the GI50 (SNB-19)?
A: > 100 µM (inactive)

Q: And the GI50 (SR)?
A: > 100 µM (inactive)

Q: And the GI50 (SW-620)?
A: > 100 µM (inactive)

Q: And the GI50 (TK-10)?
A: > 100 µM (inactive)

Q: And the GI50 (U-251)?
A: > 100 µM (inactive)

Q: And the GI50 (UACC-257)?
A: > 100 µM (inactive)

Q: And the GI50 (UACC-62)?
A: > 100 µM (inactive)

Q: And the GI50 (UO-31)?
A: > 100 µM (inactive)
